From ChEMBL document CHEMBL1201862, “PubChem BioAssay data set” (2004)
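All cell lines were grown in 96-well plates and treated with compound for 48 hours. GI50: concentration for 50% inhibition of growth.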 Calls of active or inactive are those of the source. Rule as the data show it: active = GI50 up to about 1.1 µM and inactive = higher.

What was measured:
Assay in all cases: NCI anticancer screen, dose series, 48 h
A498 = system: A498
DU-145 = system: DU-145
HCT-116 = system: HCT-116
HOP-62 = system: HOP-62
HT-29 = system: HT-29
Hs-578T = system: Hs-578T
IGROV-1 = system: IGROV-1
LOX IMVI = system: LOX IMVI
MCF7 = system: MCF7
MDA-MB-435 = system: MDA-MB-435
MDA-N = system: MDA-N
NCI-H226 = system: NCI-H226
OVCAR-8 = system: OVCAR-8
RPMI-8226 = system: RPMI-8226
SF-268 = system: SF-268
SF-539 = system: SF-539
SK-MEL-28 = system: SK-MEL-28
SK-MEL-2 = system: SK-MEL-2
SNB-19 = system: SNB-19
TK-10 = system: TK-10

Row | SMILES | GI50 (A498) | GI50 (DU-145) | GI50 (HCT-116) | GI50 (HOP-62) | GI50 (HT-29) | GI50 (Hs-578T) | GI50 (IGROV-1) | GI50 (LOX IMVI) | GI50 (MCF7) | GI50 (MDA-MB-435) | GI50 (MDA-N) | GI50 (NCI-H226) | GI50 (OVCAR-8) | GI50 (RPMI-8226) | GI50 (SF-268) | GI50 (SF-539) | GI50 (SK-MEL-28) | GI50 (SK-MEL-2) | GI50 (SNB-19) | GI50 (TK-10)
1 | COc1cc(/C=C/C(=O)c2c([O-])on[n+]2-c2ccccc2)ccc1O | 7.46 µM (inactive) | 2.34 µM (inactive) | 2.19 µM (inactive) | 4.4 µM (inactive) | 2.37 µM (inactive) | 2.43 µM (inactive) | 2.86 µM (inactive) | 2.09 µM (inactive) | 3.49 µM (inactive) | 2.75 µM (inactive) | 2.32 µM (inactive) | 5.53 µM (inactive) | 2.4 µM (inactive) | 1.77 µM (inactive) | 3.89 µM (inactive) | 2.58 µM (inactive) | 2.62 µM (inactive) | 2.31 µM (inactive) | 4.82 µM (inactive) | 3.29 µM (inactive)
2 | c1ccc(N/N=N/c2ccc(-c3nc4ccccc4[nH]3)cc2)nc1 | > 100 µM (inactive) | 13.2 µM (inactive) | 7.11 µM (inactive) | 16.6 µM (inactive) | 21 µM (inactive) | 19.8 µM (inactive) | 13.2 µM (inactive) | 18.5 µM (inactive) | 11.3 µM (inactive) | 21.6 µM (inactive) | 16.7 µM (inactive) | 26.3 µM (inactive) | 21.7 µM (inactive) | 2.05 µM (inactive) | – | 17.1 µM (inactive) | 20.7 µM (inactive) | 27 µM (inactive) | 20.8 µM (inactive) | 19.6 µM (inactive)
3 | CNC(=S)N/N=C/c1cccc(C)n1 | 20.7 µM (inactive) | 28.8 µM (inactive) | 31.6 µM (inactive) | 20.7 µM (inactive) | 36 µM (inactive) | > 91.8 µM (inactive) | 44.7 µM (inactive) | 24.7 µM (inactive) | 38.6 µM (inactive) | 45 µM (inactive) | 42 µM (inactive) | > 50.7 µM (inactive) | 23.6 µM (inactive) | > 59.8 µM (inactive) | 25.9 µM (inactive) | 18.4 µM (inactive) | 56.5 µM (inactive) | 49.1 µM (inactive) | 51.9 µM (inactive) | 32.8 µM (inactive)
4 | CCC(C)NC(=S)N/N=C(\C)c1ccccn1 (configuration not stated) | 0.102 µM (active) | 1.28 µM (inactive) | < 0.01 µM (active) | 0.0348 µM (active) | < 0.01 µM (active) | 0.396 µM (active) | < 0.01 µM (active) | < 0.0211 µM (active) | < 0.01 µM (active) | 0.824 µM (active) | 0.57 µM (active) | 0.102 µM (active) | 0.126 µM (active) | < 0.01 µM (active) | 0.351 µM (active) | 0.906 µM (active) | 1.91 µM (inactive) | 1.27 µM (inactive) | 1.45 µM (inactive) | 2.87 µM (inactive)
5 | CNCCCNC1(c2cc3ccccc3s2)CCCCC1 | 3.37 µM (inactive) | 11.9 µM (inactive) | 3.56 µM (inactive) | 8.93 µM (inactive) | 2.46 µM (inactive) | 13.2 µM (inactive) | 12.8 µM (inactive) | 2.79 µM (inactive) | 4.12 µM (inactive) | 2.55 µM (inactive) | 2.2 µM (inactive) | 19.5 µM (inactive) | 14.5 µM (inactive) | 2.04 µM (inactive) | 11.3 µM (inactive) | 2.36 µM (inactive) | 1.64 µM (inactive) | 4.59 µM (inactive) | 12.1 µM (inactive) | 6.31 µM (inactive)
6 | Cc1nc2c(=O)[nH]ncc2[nH]1 | > 100 µM (inactive) | > 100 µM (inactive) | > 100 µM (inactive) | > 100 µM (inactive) | > 100 µM (inactive) | > 100 µM (inactive) | > 100 µM (inactive) | – | > 100 µM (inactive) | > 100 µM (inactive) | > 100 µM (inactive) | > 100 µM (inactive) | > 100 µM (inactive) | > 100 µM (inactive) | > 100 µM (inactive) | > 100 µM (inactive) | > 100 µM (inactive) | > 100 µM (inactive) | > 100 µM (inactive) | > 100 µM (inactive)
7 | CCN1CCC(O)(/C=C/c2cccc(C)c2)C(C(=O)/C=C/c2cccc(C)c2)C1 (configuration not stated) | 2.03 µM (inactive) | 3.94 µM (inactive) | 2.18 µM (inactive) | – | 1.52 µM (inactive) | 2.33 µM (inactive) | 1.94 µM (inactive) | 2.17 µM (inactive) | 1.9 µM (inactive) | 2.02 µM (inactive) | 2.66 µM (inactive) | 2.42 µM (inactive) | 2.87 µM (inactive) | 1.77 µM (inactive) | 1.74 µM (inactive) | 2.17 µM (inactive) | 2.19 µM (inactive) | 2.31 µM (inactive) | 4.31 µM (inactive) | 1.71 µM (inactive)
8 | NCCCCNCCCN1CCOC1=O | > 100 µM (inactive) | > 100 µM (inactive) | > 100 µM (inactive) | > 100 µM (inactive) | > 100 µM (inactive) | > 100 µM (inactive) | > 100 µM (inactive) | > 100 µM (inactive) | > 100 µM (inactive) | > 100 µM (inactive) | > 100 µM (inactive) | > 100 µM (inactive) | > 100 µM (inactive) | > 100 µM (inactive) | > 100 µM (inactive) | > 100 µM (inactive) | > 100 µM (inactive) | > 100 µM (inactive) | > 100 µM (inactive) | 70.8 µM (inactive)
9 | CC1(c2ccccc2)N=c2[nH]cnc2=C(C(N)=O)N1 (configuration not stated) | > 100 µM (inactive) | > 100 µM (inactive) | > 100 µM (inactive) | > 100 µM (inactive) | > 100 µM (inactive) | > 100 µM (inactive) | > 100 µM (inactive) | > 100 µM (inactive) | > 100 µM (inactive) | > 100 µM (inactive) | > 100 µM (inactive) | > 100 µM (inactive) | > 100 µM (inactive) | > 100 µM (inactive) | > 100 µM (inactive) | > 100 µM (inactive) | > 100 µM (inactive) | > 100 µM (inactive) | > 100 µM (inactive) | > 100 µM (inactive)
10 | COc1cc(C2c3cc4c(cc3OC(N3CCCC3)C2C)OCO4)cc(OC)c1OC (configuration not stated) | 0.326 µM (active) | 0.571 µM (active) | 0.481 µM (active) | 0.596 µM (active) | 0.395 µM (active) | 0.445 µM (active) | 0.813 µM (active) | 0.766 µM (active) | 0.296 µM (active) | 0.177 µM (active) | 0.167 µM (active) | 0.433 µM (active) | 0.832 µM (active) | 1.08 µM (active) | 2.34 µM (inactive) | 0.246 µM (active) | 5.43 µM (inactive) | 0.394 µM (active) | 1.21 µM (inactive) | 0.938 µM (active)
11 | COc1cc(OC)cc(N(C)Cc2cnc3nc(N)nc(N)c3c2C)c1 | 18.7 µM (inactive) | 4.71 µM (inactive) | 0.358 µM (active) | 0.995 µM (active) | 2.65 µM (inactive) | > 68.5 µM (inactive) | 0.838 µM (active) | 1.16 µM (inactive) | 0.92 µM (active) | 0.759 µM (active) | 0.631 µM (active) | > 41.1 µM (inactive) | 0.741 µM (active) | > 22 µM (inactive) | 0.745 µM (active) | 0.385 µM (active) | – | > 51.5 µM (inactive) | 12.9 µM (inactive) | –
12 | CCOC(=O)Cc1nc2sc(S(N)(=O)=O)nn2c1Br | 26.5 µM (inactive) | 33.9 µM (inactive) | 31 µM (inactive) | > 100 µM (inactive) | 19.4 µM (inactive) | > 100 µM (inactive) | 28.4 µM (inactive) | 16.1 µM (inactive) | 24.7 µM (inactive) | 38.7 µM (inactive) | 35.1 µM (inactive) | 27.2 µM (inactive) | 21.3 µM (inactive) | 17.3 µM (inactive) | 56.5 µM (inactive) | – | 33.1 µM (inactive) | 28.5 µM (inactive) | 87.7 µM (inactive) | 35.1 µM (inactive)
13 | NCCc1c[nH]c2ccc(OC(=O)C(=O)O)cc12 | > 100 µM (inactive) | > 100 µM (inactive) | > 100 µM (inactive) | > 100 µM (inactive) | > 100 µM (inactive) | > 100 µM (inactive) | > 100 µM (inactive) | > 100 µM (inactive) | > 100 µM (inactive) | > 100 µM (inactive) | > 100 µM (inactive) | > 100 µM (inactive) | > 100 µM (inactive) | > 100 µM (inactive) | > 100 µM (inactive) | > 100 µM (inactive) | > 100 µM (inactive) | > 100 µM (inactive) | > 100 µM (inactive) | > 100 µM (inactive)
14 | COc1c(OC)c(OC)c(C(=O)/C=C/c2ccccc2)c(OC)c1OC | 4.28 µM (inactive) | 3.54 µM (inactive) | 6.11 µM (inactive) | – | 4.47 µM (inactive) | 4.32 µM (inactive) | 11.3 µM (inactive) | 10 µM (inactive) | 5.82 µM (inactive) | 5.06 µM (inactive) | 5.51 µM (inactive) | 8.05 µM (inactive) | 10.3 µM (inactive) | 3.6 µM (inactive) | 3.69 µM (inactive) | 9.02 µM (inactive) | 13.4 µM (inactive) | 12.6 µM (inactive) | 12.4 µM (inactive) | 12.8 µM (inactive)
15 | CN(C)c1ccc(/C=N/NC(=O)c2cnc3ccccc3c2)cc1 | > 100 µM (inactive) | 59.3 µM (inactive) | > 100 µM (inactive) | 35.5 µM (inactive) | – | 25.5 µM (inactive) | 51.1 µM (inactive) | > 100 µM (inactive) | > 100 µM (inactive) | 4.03 µM (inactive) | 4.71 µM (inactive) | > 100 µM (inactive) | 98.2 µM (inactive) | > 100 µM (inactive) | 18 µM (inactive) | 52 µM (inactive) | > 100 µM (inactive) | > 100 µM (inactive) | 48 µM (inactive) | 26.3 µM (inactive)
